Test results taken from ChEMBL document CHEMBL1153550, “In vitro study of Candida tropicalis isolates exhibiting paradoxical growth in the presence of high concentrations of caspofungin” (2007).
≈ marks a conversion by molar mass, not a printed value. Calls of active or inactive are those of the source. No cut-off for these calls is given here.

Assays:
Candida tropicalis [1] = test: Antifungal activity against > 2 x 10^7 CFU/ml Candida tropicalis isolate 13 in RPMI 1640 medium assessed as partial growth after 24 hrs by broth microdilution method; assay type: functional, organism-based
Candida tropicalis [2] = test: Antifungal activity against Candida tropicalis isolate 6 in RPMI 1640 medium assessed as paradoxical growth at 12.5 ug/ml after 48 hrs by broth microdilution method; assay type: functional, organism-based
Candida tropicalis [3] = test: Antifungal activity against 10^5 CFU/ml Candida tropicalis isolate 14 in RPMI 1640 medium at 12.5 ug/ml treated for 48 hrs followed by incubation in drug free medium for 48 hrs by broth microdilution method; assay type: functional, organism-based
Candida tropicalis [4] = test: Antifungal activity against Candida tropicalis ATCC 750 in RPMI 1640 medium assessed as paradoxical growth at 12.5 ug/ml after 48 hrs by broth microdilution method; assay type: functional, organism-based
Candida tropicalis [5] = test: Antifungal activity against 2 x 10^7 CFU/ml Candida tropicalis isolate 5 in antibiotic medium 3 after 24 hrs by broth microdilution method; assay type: functional; conditions: isolate 5, 24 h
Candida tropicalis [6] = test: Antifungal activity against 10^5 CFU/ml Candida tropicalis isolate 4 in RPMI 1640 medium at 12.5 ug/ml treated for 24 hrs followed by incubation in drug free medium for 48 hrs by broth microdilution method; assay type: functional, organism-based
Candida tropicalis [7] = test: Antifungal activity against Candida tropicalis isolate 4 in RPMI 1640 medium assessed as paradoxical growth at 12.5 ug/ml after 24 hrs by broth microdilution method; assay type: functional, organism-based
Candida tropicalis [8] = test: Antifungal activity against Candida tropicalis isolate 15 in RPMI 1640 medium assessed as paradoxical growth at 12.5 ug/ml after 48 hrs by broth microdilution method; assay type: functional, organism-based
Candida tropicalis [9] = test: Antifungal activity against 10^5 CFU/ml Candida tropicalis isolate 6 in RPMI 1640 medium at 12.5 ug/ml treated for 48 hrs followed by incubation in drug free medium for 48 hrs by broth microdilution method; assay type: functional, organism-based
Candida tropicalis [10] = test: Antifungal activity against 10^5 CFU/ml Candida tropicalis isolate 5 in RPMI 1640 medium at 12.5 ug/ml treated for 24 hrs followed by incubation in drug free medium for 48 hrs by broth microdilution method; assay type: functional, organism-based
Candida tropicalis [11] = test: Antifungal activity against 2 x 10^7 CFU/ml Candida tropicalis isolate 8 in RPMI 1640 medium after 24 hrs by broth microdilution method; assay type: functional; conditions: isolate 8, 24 h
Candida tropicalis [12] = test: Antifungal activity against 10^5 CFU/ml Candida tropicalis isolate 1 in RPMI 1640 medium at 12.5 ug/ml treated for 24 hrs followed by incubation in drug free medium for 48 hrs by broth microdilution method; assay type: functional, organism-based
Candida tropicalis [13] = test: Antifungal activity against 10^5 CFU/ml Candida tropicalis isolate 8 in RPMI 1640 medium at 12.5 ug/ml treated for 24 hrs followed by incubation in drug free medium for 48 hrs by broth microdilution method; assay type: functional, organism-based
Candida tropicalis [14] = test: Antifungal activity against Candida tropicalis isolate 5 in RPMI 1640 medium assessed as paradoxical growth at 6.25 ug/ml after 48 hrs by broth microdilution method; assay type: functional, organism-based
Candida tropicalis [15] = test: Antifungal activity against 2 x 10^7 CFU/ml Candida tropicalis isolate 13 in antibiotic medium 3 after 24 hrs by broth microdilution method; assay type: functional; conditions: isolate 13, 24 h
Candida tropicalis [16] = test: Antifungal activity against 2 x 10^7 CFU/ml Candida tropicalis isolate 2 in RPMI 1640 medium after 24 hrs by broth microdilution method; assay type: functional; conditions: isolate 2, 24 h
Candida tropicalis [17] = test: Antifungal activity against 10^5 CFU/ml Candida tropicalis clinical isolate in RPMI 1640 medium treated for 24 hrs followed by incubation in drug free medium for 48 hrs by broth microdilution method; assay type: functional, organism-based
Candida tropicalis [18] = test: Antifungal activity against 10^5 CFU/ml Candida tropicalis isolate 5 in RPMI 1640 medium at 12.5 ug/ml treated for 48 hrs followed by incubation in drug free medium for 48 hrs by broth microdilution method; assay type: functional, organism-based
Candida tropicalis [19] = test: Antifungal activity against 10^5 CFU/ml Candida tropicalis isolate 7 in RPMI 1640 medium at 12.5 ug/ml treated for 48 hrs followed by incubation in drug free medium for 48 hrs by broth microdilution method; assay type: functional, organism-based
Candida tropicalis [20] = test: Antifungal activity against 2 x 10^7 CFU/ml Candida tropicalis isolate 10 in antibiotic medium 3 after 24 hrs by broth microdilution method; assay type: functional; conditions: isolate 10, 24 h
Candida tropicalis [21] = test: Antifungal activity against 2 x 10^7 CFU/ml Candida tropicalis isolate 12 in antibiotic medium 3 after 24 hrs by broth microdilution method; assay type: functional; conditions: isolate 12, 24 h
Candida tropicalis [22] = test: Antifungal activity against 2 x 10^7 CFU/ml Candida tropicalis isolate 11 in antibiotic medium 3 after 24 hrs by broth microdilution method; assay type: functional; conditions: isolate 11, 24 h
Candida tropicalis [23] = test: Antifungal activity against Candida tropicalis isolate 5 in RPMI 1640 medium assessed as paradoxical growth at 12.5 ug/ml after 24 hrs by broth microdilution method; assay type: functional, organism-based
Candida tropicalis [24] = test: Antifungal activity against > 2 x 10^7 CFU/ml Candida tropicalis isolate 15 in RPMI 1640 medium assessed as partial growth after 24 hrs by broth microdilution method; assay type: functional, organism-based
Candida tropicalis [25] = test: Antifungal activity Candida tropicalis ATCC 750 in RPMI 1640 medium at 12.5 ug/ml after 24 hrs by time-kill assay; assay type: functional, organism-based
Candida tropicalis [26] = test: Fungicidal activity against Candida tropicalis isolate 15 at =< 3.12 ug/ml after 24 to 48 hrs by time-kill assay; assay type: functional, organism-based
Candida tropicalis [27] = test: Antifungal activity against > 2 x 10^7 CFU/ml Candida tropicalis isolate 1 in RPMI 1640 medium assessed as partial growth after 24 hrs by broth microdilution method; assay type: functional, organism-based

Compound: CC[C@H](C)C[C@H](C)CCCCCCCCC(=O)N[C@H]1C[C@@H](O)[C@@H](NCCN)NC(=O)[C@@H]2[C@@H](O)CCN2C(=O)[C@H]([C@H](O)CCN)NC(=O)[C@H]([C@H](O)[C@@H](O)c2ccc(O)cc2)NC(=O)[C@@H]2C[C@@H](O)CN2C(=O)[C@H]([C@@H](C)O)NC1=O [CASPOFUNGIN]
- Activity (Candida tropicalis [1]): inactive
- Activity (Candida tropicalis [2]): inactive
- Activity (Candida tropicalis [3]): inactive
- Activity (Candida tropicalis [4]): Active
- MIC (Candida tropicalis [5]): 0.024 µg/mL (≈ 0.022 µM)
- Activity (Candida tropicalis [6]): inactive
- Activity (Candida tropicalis [7]): inactive
- Activity (Candida tropicalis [8]): Active
- Activity (Candida tropicalis [9]): inactive
- Activity (Candida tropicalis [10]): inactive
- MIC (Candida tropicalis [11]): 0.024 µg/mL (≈ 0.022 µM)
- Activity (Candida tropicalis [12]): inactive
- Activity (Candida tropicalis [13]): inactive
- Activity (Candida tropicalis [14]): inactive
- MIC (Candida tropicalis [15]): 0.024 µg/mL (≈ 0.022 µM)
- MIC (Candida tropicalis [16]): 0.024 µg/mL (≈ 0.022 µM)
- Activity (Candida tropicalis [17]): Active
- Activity (Candida tropicalis [18]): inactive
- Activity (Candida tropicalis [19]): Active
- MIC (Candida tropicalis [20]): 0.024 µg/mL (≈ 0.022 µM)
- MIC (Candida tropicalis [21]): 0.024 µg/mL (≈ 0.022 µM)
- MIC (Candida tropicalis [22]): 0.024 µg/mL (≈ 0.022 µM)
- Activity (Candida tropicalis [23]): inactive
- Activity (Candida tropicalis [24]): inactive
- Activity (Candida tropicalis [25]): inactive
- Activity (Candida tropicalis [26]): Active
- Activity (Candida tropicalis [27]): inactive
